Measured values from ChEMBL document CHEMBL3091417, “Substituted phenyl as a steroid A-ring mimetic: providing agonist activity to a class of arylsulfonamide nonsteroidal glucocorticoid ligands” (Bioorg Med Chem Lett, 2013).

What follows are molecules tested against T1, Glucocorticoid receptor (Homo sapiens, UniProt P04150) (assay: Inhibition of glucocorticoid receptor (unknown origin) expressed in baculovirus-infected insect cells by fluorescence polarization assay).
T1 sequence (P04150 whole entry): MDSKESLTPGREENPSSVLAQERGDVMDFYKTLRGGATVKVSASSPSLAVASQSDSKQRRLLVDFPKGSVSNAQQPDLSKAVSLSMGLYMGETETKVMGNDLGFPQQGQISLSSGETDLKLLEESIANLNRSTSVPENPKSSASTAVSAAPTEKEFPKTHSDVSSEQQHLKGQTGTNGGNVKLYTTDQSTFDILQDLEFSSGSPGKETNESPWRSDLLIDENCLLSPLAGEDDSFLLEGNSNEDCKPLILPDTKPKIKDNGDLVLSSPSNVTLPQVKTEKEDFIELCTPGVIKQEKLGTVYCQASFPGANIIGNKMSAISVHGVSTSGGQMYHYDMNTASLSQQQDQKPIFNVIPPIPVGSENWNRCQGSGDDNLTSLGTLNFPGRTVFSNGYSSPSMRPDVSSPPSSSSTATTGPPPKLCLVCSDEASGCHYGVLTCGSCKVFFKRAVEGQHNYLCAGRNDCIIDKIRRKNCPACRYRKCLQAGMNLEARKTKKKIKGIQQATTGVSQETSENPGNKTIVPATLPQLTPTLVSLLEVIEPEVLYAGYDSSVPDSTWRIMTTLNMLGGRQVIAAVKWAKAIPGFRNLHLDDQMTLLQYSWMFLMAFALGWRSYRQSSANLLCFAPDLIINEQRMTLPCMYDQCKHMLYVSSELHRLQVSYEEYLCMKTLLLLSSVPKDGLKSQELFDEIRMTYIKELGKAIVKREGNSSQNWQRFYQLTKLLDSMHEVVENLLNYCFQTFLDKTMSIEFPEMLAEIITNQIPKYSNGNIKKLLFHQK

Row | IC50 [nM] | SMILES
1 | 120 | CC[C@@H](Cc1ccc(O)cc1)NS(=O)(=O)c1c(C)cc(C)cc1C
2 | 10 | CCC(Cc1cccc(C)c1C)NS(=O)(=O)c1c(C)cc(C)cc1C (stereo not given)
3 | 5 | CCC(Cc1ccc(O)c(C)c1C)NS(=O)(=O)c1c(C)cc(C)cc1C (racemic)
4 | 3 | CCC(Cc1ccc(O)c2ccccc12)NS(=O)(=O)c1c(C)cc(C)cc1C (stereo not given)
5 | 11 | CCC(Cc1cc(C)cc(C)c1)NS(=O)(=O)c1c(C)cc(C)cc1C (stereo not given)
6 | 250 | CCC(Cc1cc(C)c(OC)c(C)c1)NS(=O)(=O)c1c(C)cc(C)cc1C (stereo not given)

The next lines start with the molecule.

Row | SMILES | IC50 [nM]
7 | CCC(Cc1ccc2ccccc2c1)NS(=O)(=O)c1c(C)cc(C)cc1C (stereo not given) | 78
8 | CCC(Cc1ccc(C)cc1C)NS(=O)(=O)c1c(C)cc(C)cc1C (stereo not given) | 160
9 | CCC(Cc1cccc(C)c1)NS(=O)(=O)c1c(C)cc(C)cc1C (stereo not given) | 23
10 | CCC(Cc1cc(Cl)cc(Cl)c1)NS(=O)(=O)c1c(C)cc(C)cc1C (stereo not given) | 10
11 | CCC(Cc1ccc(OC)c(C)c1C)NS(=O)(=O)c1c(C)cc(C)cc1C (stereo not given) | 62

Each molecule was assayed against T2, Progesterone receptor (Homo sapiens, UniProt P06401) (assay: Inhibition of progesterone receptor (unknown origin) expressed in baculovirus-infected insect cells by fluorescence polarization assay).
T2 sequence (P06401 whole entry): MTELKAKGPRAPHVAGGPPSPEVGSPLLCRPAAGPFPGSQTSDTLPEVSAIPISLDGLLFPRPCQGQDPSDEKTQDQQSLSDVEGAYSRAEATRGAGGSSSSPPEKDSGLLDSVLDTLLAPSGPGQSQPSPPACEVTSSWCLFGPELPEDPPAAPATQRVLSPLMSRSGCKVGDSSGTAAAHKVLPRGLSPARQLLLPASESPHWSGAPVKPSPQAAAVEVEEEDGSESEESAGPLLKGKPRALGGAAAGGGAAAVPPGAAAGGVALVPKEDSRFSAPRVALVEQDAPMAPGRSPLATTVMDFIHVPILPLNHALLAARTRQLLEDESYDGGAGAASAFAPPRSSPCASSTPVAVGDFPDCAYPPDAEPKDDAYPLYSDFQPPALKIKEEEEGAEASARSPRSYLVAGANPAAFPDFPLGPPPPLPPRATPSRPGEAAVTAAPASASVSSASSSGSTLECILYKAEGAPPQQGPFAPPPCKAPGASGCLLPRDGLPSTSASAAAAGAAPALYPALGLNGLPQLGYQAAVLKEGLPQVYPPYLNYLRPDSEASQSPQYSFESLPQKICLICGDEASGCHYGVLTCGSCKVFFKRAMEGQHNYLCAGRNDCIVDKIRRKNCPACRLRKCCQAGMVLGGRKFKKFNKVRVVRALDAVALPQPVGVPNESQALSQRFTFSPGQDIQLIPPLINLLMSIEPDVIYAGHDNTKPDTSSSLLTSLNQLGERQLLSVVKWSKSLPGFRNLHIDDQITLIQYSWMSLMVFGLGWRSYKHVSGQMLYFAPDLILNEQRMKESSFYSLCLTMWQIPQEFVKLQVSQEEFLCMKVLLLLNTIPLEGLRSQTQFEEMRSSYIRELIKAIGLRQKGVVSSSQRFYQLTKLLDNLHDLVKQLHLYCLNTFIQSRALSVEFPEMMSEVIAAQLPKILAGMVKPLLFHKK

Row | IC50 [nM] | SMILES
12 | 6400 | CC[C@@H](Cc1ccc(O)cc1)NS(=O)(=O)c1c(C)cc(C)cc1C
13 | 2000 | CCC(Cc1cccc(C)c1C)NS(=O)(=O)c1c(C)cc(C)cc1C (stereo not given)
14 | 860 | CCC(Cc1ccc(O)c(C)c1C)NS(=O)(=O)c1c(C)cc(C)cc1C (racemic)
15 | 210 | CCC(Cc1ccc(O)c2ccccc12)NS(=O)(=O)c1c(C)cc(C)cc1C (stereo not given)
16 | 7400 | CCC(Cc1cc(C)cc(C)c1)NS(=O)(=O)c1c(C)cc(C)cc1C (stereo not given)
17 | > 10000 | CCC(Cc1cc(C)c(OC)c(C)c1)NS(=O)(=O)c1c(C)cc(C)cc1C (stereo not given)

Further lines, the molecule ahead of its results:

Row | SMILES | IC50 [nM]
18 | CCC(Cc1ccc2ccccc2c1)NS(=O)(=O)c1c(C)cc(C)cc1C (stereo not given) | 720
19 | CCC(Cc1ccc(C)cc1C)NS(=O)(=O)c1c(C)cc(C)cc1C (stereo not given) | 8200
20 | CCC(Cc1cccc(C)c1)NS(=O)(=O)c1c(C)cc(C)cc1C (stereo not given) | 5500
21 | CCC(Cc1cc(Cl)cc(Cl)c1)NS(=O)(=O)c1c(C)cc(C)cc1C (stereo not given) | 1200
22 | CCC(Cc1ccc(OC)c(C)c1C)NS(=O)(=O)c1c(C)cc(C)cc1C (stereo not given) | 2100

Each molecule was assayed against T3, Mineralocorticoid receptor (Homo sapiens, UniProt P08235) (assay: Inhibition of mineralocorticoid receptor (unknown origin) expressed in baculovirus-infected insect cells by fluorescence polarization assay).
T3 sequence (P08235 whole entry): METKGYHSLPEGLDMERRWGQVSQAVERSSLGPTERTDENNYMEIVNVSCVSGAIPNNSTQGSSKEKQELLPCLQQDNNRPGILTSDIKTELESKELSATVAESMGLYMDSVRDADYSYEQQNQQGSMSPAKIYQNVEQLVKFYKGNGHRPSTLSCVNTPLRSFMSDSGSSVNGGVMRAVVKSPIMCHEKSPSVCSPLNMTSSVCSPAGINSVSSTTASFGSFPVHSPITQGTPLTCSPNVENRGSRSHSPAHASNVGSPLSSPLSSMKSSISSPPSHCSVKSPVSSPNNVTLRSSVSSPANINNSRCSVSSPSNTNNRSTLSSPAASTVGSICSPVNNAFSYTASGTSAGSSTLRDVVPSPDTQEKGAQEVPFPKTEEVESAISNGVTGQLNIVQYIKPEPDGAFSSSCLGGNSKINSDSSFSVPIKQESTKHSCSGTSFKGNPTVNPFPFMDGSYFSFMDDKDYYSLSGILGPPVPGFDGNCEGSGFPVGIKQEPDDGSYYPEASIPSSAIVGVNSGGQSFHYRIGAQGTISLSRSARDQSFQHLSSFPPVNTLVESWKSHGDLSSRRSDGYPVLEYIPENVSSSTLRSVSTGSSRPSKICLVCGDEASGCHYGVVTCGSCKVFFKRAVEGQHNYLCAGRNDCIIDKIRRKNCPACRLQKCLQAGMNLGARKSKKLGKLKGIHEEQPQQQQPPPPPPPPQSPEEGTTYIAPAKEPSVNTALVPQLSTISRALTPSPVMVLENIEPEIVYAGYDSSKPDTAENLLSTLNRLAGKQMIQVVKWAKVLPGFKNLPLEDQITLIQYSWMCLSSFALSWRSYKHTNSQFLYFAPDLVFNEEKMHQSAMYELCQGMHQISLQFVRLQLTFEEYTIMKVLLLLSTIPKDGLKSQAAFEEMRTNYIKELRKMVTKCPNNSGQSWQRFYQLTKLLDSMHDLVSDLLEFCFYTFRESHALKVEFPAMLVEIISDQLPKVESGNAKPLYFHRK

Row | IC50 [nM] | SMILES
23 | 5200 | CC[C@@H](Cc1ccc(O)cc1)NS(=O)(=O)c1c(C)cc(C)cc1C
24 | 350 | CCC(Cc1cccc(C)c1C)NS(=O)(=O)c1c(C)cc(C)cc1C (stereo not given)
25 | 240 | CCC(Cc1ccc(O)c(C)c1C)NS(=O)(=O)c1c(C)cc(C)cc1C (racemic)
26 | 110 | CCC(Cc1ccc(O)c2ccccc12)NS(=O)(=O)c1c(C)cc(C)cc1C (stereo not given)
27 | 360 | CCC(Cc1cc(C)cc(C)c1)NS(=O)(=O)c1c(C)cc(C)cc1C (stereo not given)
28 | 1400 | CCC(Cc1cc(C)c(OC)c(C)c1)NS(=O)(=O)c1c(C)cc(C)cc1C (stereo not given)

Continued, molecule first:

Row | SMILES | IC50 [nM]
29 | CCC(Cc1ccc2ccccc2c1)NS(=O)(=O)c1c(C)cc(C)cc1C (stereo not given) | 400
30 | CCC(Cc1ccc(C)cc1C)NS(=O)(=O)c1c(C)cc(C)cc1C (stereo not given) | 2400
31 | CCC(Cc1cccc(C)c1)NS(=O)(=O)c1c(C)cc(C)cc1C (stereo not given) | 400
32 | CCC(Cc1cc(Cl)cc(Cl)c1)NS(=O)(=O)c1c(C)cc(C)cc1C (stereo not given) | 150
33 | CCC(Cc1ccc(OC)c(C)c1C)NS(=O)(=O)c1c(C)cc(C)cc1C (stereo not given) | 330

The molecules below were run against T1, Glucocorticoid receptor (assay: Agonist activity at glucocorticoid receptor in human foreskin fibroblasts assessed as IL-1-mediated IL-6 synthesis after 24 hrs).

Row | IC50 [nM] | SMILES
34 | > 2000 | CC[C@@H](Cc1ccc(O)cc1)NS(=O)(=O)c1c(C)cc(C)cc1C
35 | > 10000 | CCC(Cc1cccc(C)c1C)NS(=O)(=O)c1c(C)cc(C)cc1C (stereo not given)
36 | 15 | CCC(Cc1ccc(O)c(C)c1C)NS(=O)(=O)c1c(C)cc(C)cc1C (racemic)
37 | 23 | CCC(Cc1ccc(O)c2ccccc12)NS(=O)(=O)c1c(C)cc(C)cc1C (stereo not given)
38 | > 10000 | CCC(Cc1cc(C)cc(C)c1)NS(=O)(=O)c1c(C)cc(C)cc1C (stereo not given)
39 | > 2000 | CCC(Cc1cc(C)c(OC)c(C)c1)NS(=O)(=O)c1c(C)cc(C)cc1C (stereo not given)

More lines, now with the values behind:

Row | SMILES | IC50 [nM]
40 | CCC(Cc1ccc2ccccc2c1)NS(=O)(=O)c1c(C)cc(C)cc1C (stereo not given) | > 10000
41 | CCC(Cc1ccc(C)cc1C)NS(=O)(=O)c1c(C)cc(C)cc1C (stereo not given) | > 10000
42 | CCC(Cc1cccc(C)c1)NS(=O)(=O)c1c(C)cc(C)cc1C (stereo not given) | > 10000
43 | CCC(Cc1cc(Cl)cc(Cl)c1)NS(=O)(=O)c1c(C)cc(C)cc1C (stereo not given) | > 10000
44 | CCC(Cc1ccc(OC)c(C)c1C)NS(=O)(=O)c1c(C)cc(C)cc1C (stereo not given) | > 2000

What follows are molecules tested against T4, Glucocorticoid receptor (Homo sapiens) (UniProt P04150) (assay: Agonist activity at glucocorticoid receptor in human foreskin fibroblasts assessed as IL-1-mediated IL-6 synthesis at […] after 24 hrs relative to dexamethasone).
T4 sequence (whole entry): T1 sequence (P04150 whole entry)

Row | Emax [%] | SMILES
45 | 0 | CC[C@@H](Cc1ccc(O)cc1)NS(=O)(=O)c1c(C)cc(C)cc1C
46 | 19 | CCC(Cc1cccc(C)c1C)NS(=O)(=O)c1c(C)cc(C)cc1C (stereo not given)
47 | 81 | CCC(Cc1ccc(O)c(C)c1C)NS(=O)(=O)c1c(C)cc(C)cc1C (racemic)
48 | 80 | CCC(Cc1ccc(O)c2ccccc12)NS(=O)(=O)c1c(C)cc(C)cc1C (stereo not given)
49 | 36 | CCC(Cc1cc(C)cc(C)c1)NS(=O)(=O)c1c(C)cc(C)cc1C (stereo not given)
50 | 0 | CCC(Cc1cc(C)c(OC)c(C)c1)NS(=O)(=O)c1c(C)cc(C)cc1C (stereo not given)

The next lines start with the molecule.

Row | SMILES | Emax [%]
51 | CCC(Cc1ccc2ccccc2c1)NS(=O)(=O)c1c(C)cc(C)cc1C (stereo not given) | 0
52 | CCC(Cc1ccc(C)cc1C)NS(=O)(=O)c1c(C)cc(C)cc1C (stereo not given) | 0
53 | CCC(Cc1cccc(C)c1)NS(=O)(=O)c1c(C)cc(C)cc1C (stereo not given) | 0
54 | CCC(Cc1cc(Cl)cc(Cl)c1)NS(=O)(=O)c1c(C)cc(C)cc1C (stereo not given) | 0
55 | CCC(Cc1ccc(OC)c(C)c1C)NS(=O)(=O)c1c(C)cc(C)cc1C (stereo not given) | 0
